The record followed here is PubChem BioAssay AID328 (DTP/NCI, 2004).

The subject of the assay is BDF1 mice, P388 leukemia ip, median survival T/C. The assay can be described thus: NCI In Vivo Anticancer Drug Screen. Data for tumor model P388 Leukemia (intraperitoneal) in B6D2F1 (BDF1) mice. To be noted: endpoint: median survival time, higher = longer survival. In outline:
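Vehicle-dosed animals serve as the reference; survival of compound-dosed, tumour-implanted mice is divided by it.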

[1] abbreviates: dose: 12.5 mg/kg/injection, schedule: Q01DX009 (ip), vehicle: saline with Tween-80.
Setting [2] is: dose: 25.0 mg/kg/injection, schedule: Q01DX009 (ip), vehicle: saline with Tween-80.
The mark [3] stands for this setting: dose: 50.0 mg/kg/injection, schedule: Q01DX009 (ip), vehicle: saline with Tween-80.
The mark [4] stands for this setting: dose: 100.0 mg/kg/injection, schedule: Q04DX003 (ip), vehicle: saline with Tween-80.
[5] abbreviates: dose: 12.5 mg/kg/injection, schedule: Q01DX009 (ip), vehicle: saline.
[6] abbreviates: dose: 25.0 mg/kg/injection, schedule: Q01DX009 (ip), vehicle: saline.

“And” between values parts separate entries of the source, which are not always exact repeats. Equal values may be shown once. Toxic doses and inconclusive results are not listed.

With `CC[N+](C)(C)CC`, the T/C is, setting by setting: (dose: 25.0 mg/kg/injection, schedule: Q01DX001 (ip), vehicle: saline) 105 % of control; (dose: 50.0 mg/kg/injection, schedule: Q01DX001 (ip), vehicle: saline) 103 % of control; (dose: 100.0 mg/kg/injection, schedule: Q01DX001 (ip), vehicle: saline) 96 % of control and 117 % of control.
For the compound `CCn1cnc(-c2ccccc2)c1-c1ccccc1`, the T/C under setting [1] is 100 % of control, the T/C under setting [2] was 104 % of control and the T/C under setting [3] was 100 % of control.
For the compound `Cc1cnn(O)c(=NCCCl)n1`, the T/C (dose: 100.0 mg/kg/injection, schedule: Q04DX002 (ip), vehicle: saline with Tween-80) is 99 % of control; the T/C (dose: 200.0 mg/kg/injection, schedule: Q04DX002 (ip), vehicle: saline with Tween-80) is 99 % of control; the T/C (dose: 400.0 mg/kg/injection, schedule: Q04DX002 (ip), vehicle: saline with Tween-80) is 99 % of control.
Consider `CC12CCC(c3sc(N)c(C#N)c31)C2(C)C` (stereo unspecified), for which the T/C is 88 % of control (dose: 1.56 mg/kg/injection, schedule: Q01DX009 (ip), vehicle: saline with Tween-80); 102 % of control (dose: 3.13 mg/kg/injection, schedule: Q01DX009 (ip), vehicle: saline with Tween-80); 104 % of control (dose: 6.25 mg/kg/injection, schedule: Q01DX009 (ip), vehicle: saline with Tween-80); 104 % of control and 121 % of control under setting [1]; 104 % of control under setting [2]; 118 % of control under setting [3].
For `C1CC[N-]CC1.C1CC[N-]CC1.C1CC[N-]CC1.C1CC[N-]CC1.N#C[S-].N#C[S-].[Ni]`, the T/C was 100 % of control (dose: 5.0 mg/kg/injection, schedule: Q01DX009 (ip), vehicle: saline with Tween-80); 100 % of control (dose: 10.0 mg/kg/injection, schedule: Q01DX009 (ip), vehicle: saline with Tween-80); 108 % of control (dose: 20.0 mg/kg/injection, schedule: Q01DX009 (ip), vehicle: saline with Tween-80).
With `Cn1ccc(=O)c2cc([N+](=O)[O-])ccc21`, the T/C (dose: 12.5 mg/kg/injection, schedule: Q01DX009 (ip), vehicle: water) is 94 % of control; the T/C (dose: 25.0 mg/kg/injection, schedule: Q01DX009 (ip), vehicle: water) was 111 % of control; the T/C (dose: 25.0 mg/kg/injection, schedule: Q04DX003 (ip), vehicle: water) is 102 % of control; the T/C (dose: 50.0 mg/kg/injection, schedule: Q01DX009 (ip), vehicle: water) is 93 % of control; the T/C (dose: 50.0 mg/kg/injection, schedule: Q04DX003 (ip), vehicle: water) is 100 % of control; the T/C (dose: 100.0 mg/kg/injection, schedule: Q01DX009 (ip), vehicle: water) is 94 % of control. For the same compound, the T/C by setting is: (dose: 100.0 mg/kg/injection, schedule: Q04DX003 (ip), vehicle: water) 109 % of control; (dose: 200.0 mg/kg/injection, schedule: Q01DX009 (ip), vehicle: water) 93 % of control; (dose: 200.0 mg/kg/injection, schedule: Q04DX003 (ip), vehicle: water) 92 % of control; (dose: 300.0 mg/kg/injection, schedule: Q01DX009 (ip), vehicle: water) 113 % of control.
For the compound `[Mg+2]`, the T/C runs as follows: (dose: 100.0 mg/kg/injection, schedule: Q01DX010 (ip), vehicle: saline) 100 % of control; (dose: 200.0 mg/kg/injection, schedule: Q01DX010 (ip), vehicle: saline) 100 % of control; (dose: 400.0 mg/kg/injection, schedule: Q01DX010 (ip), vehicle: saline) 100 % of control.
On to `O=C(Nc1ccc(C2=NCCN2)cc1)c1cccc(C(=O)Nc2ccc(C3=NCCN3)cc2)c1`, for which the T/C (dose: 8.0 mg/kg/injection, schedule: Q01DX010 (ip), vehicle: saline) was 160 % of control; the T/C (dose: 16.0 mg/kg/injection, schedule: Q01DX010 (ip), vehicle: saline) was 163 % of control and 180 % of control; the T/C (dose: 32.0 mg/kg/injection, schedule: Q01DX010 (ip), vehicle: saline) was 195 % of control and 200 % of control; the T/C (dose: 64.0 mg/kg/injection, schedule: Q01DX010 (ip), vehicle: saline) was 235 % of control and 200 % of control.
For the compound `CCOC(=O)C(NC(=O)C(Cc1ccc(N(CCCl)CCCl)cc1)NC(C)=O)C(C)C` (stereo unspecified), the T/C (dose: 5.0 mg/kg/injection, schedule: Q04DX003 (ip), vehicle: other) is 118 % of control; the T/C (dose: 10.0 mg/kg/injection, schedule: Q04DX003 (ip), vehicle: other) is 118 % of control; the T/C (dose: 40.0 mg/kg/injection, schedule: Q04DX003 (ip), vehicle: other) is 151 % of control; the T/C (dose: 66.0 mg/kg/injection, schedule: Q04DX003 (ip), vehicle: saline with Tween-80) was 168 % of control; the T/C under setting [4] was 186 % of control; the T/C (dose: 150.0 mg/kg/injection, schedule: Q04DX003 (ip), vehicle: saline with Tween-80) is 245 % of control.
On to `CCCCOP(=O)(CCCC)OCCCC`, for which the T/C reads like this: under setting [1], 109 % of control; (dose: 12.5 mg/kg/injection, schedule: Q04DX003 (ip), vehicle: saline) 100 % of control; under setting [2], 104 % of control; (dose: 25.0 mg/kg/injection, schedule: Q04DX003 (ip), vehicle: saline) 104 % of control; under setting [3], 109 % of control; (dose: 50.0 mg/kg/injection, schedule: Q04DX003 (ip), vehicle: saline) 104 % of control.
Take `C(=Nc1ccc(-c2ccccc2)cc1)c1ccccc1`: the T/C under setting [4] is 100 % of control; the T/C (dose: 200.0 mg/kg/injection, schedule: Q04DX003 (ip), vehicle: saline with Tween-80) was 100 % of control; the T/C (dose: 400.0 mg/kg/injection, schedule: Q04DX003 (ip), vehicle: saline with Tween-80) is 100 % of control.
Regarding `Nc1nc2ncc(CN(CCS(=O)(=O)F)c3ccc(C(=O)NC(CCC(=O)O)C(=O)O)cc3)nc2c(=O)[nH]1` (stereo unspecified), the T/C was 105 % of control (dose: 50.0 mg/kg/injection, schedule: Q04DX003 (ip), vehicle: sodium bicarbonate); 99 % of control (dose: 100.0 mg/kg/injection, schedule: Q04DX003 (ip), vehicle: sodium bicarbonate); 94 % of control (dose: 200.0 mg/kg/injection, schedule: Q04DX003 (ip), vehicle: sodium bicarbonate).
`O=C1OC2CC=CCC2CC1O` (stereo unspecified): the T/C runs as follows: under setting [5], 92 % of control; under setting [6], 96 % of control; (dose: 50.0 mg/kg/injection, schedule: Q01DX009 (ip), vehicle: saline) 102 % of control; (dose: 100.0 mg/kg/injection, schedule: Q01DX009 (ip), vehicle: saline) 102 % of control.
`COc1cc(NCCCC(C)N)c2ncccc2c1OC` (stereo unspecified): the T/C is 101 % of control (dose: 6.25 mg/kg/injection, schedule: Q01DX009 (ip), vehicle: saline); 109 % of control under setting [5]; 116 % of control under setting [6].
As for `OCC1OC(n2cnc3cncnc32)C(O)C1O` (stereo unspecified), the T/C runs as follows: (dose: 0.78 mg/kg/injection, schedule: Q01DX009 (ip), vehicle: saline) 97 % of control; (dose: 1.56 mg/kg/injection, schedule: Q01DX009 (ip), vehicle: saline) 113 % of control and 115 % of control; (dose: 3.13 mg/kg/injection, schedule: Q04DX003 (ip), vehicle: saline) 100 % of control; (dose: 6.25 mg/kg/injection, schedule: Q04DX003 (ip), vehicle: saline) 116 % of control; under setting [6], 100 % of control.
In the case of `CCP(CC)c1ccccc1`, the T/C is, setting by setting: (dose: 100.0 mg/kg/injection, schedule: Q01DX009 (sc), vehicle: olive oil, sesame oil, peanut oil) 96 % of control; (dose: 100.0 mg/kg/injection, schedule: Q04DX003 (sc), vehicle: olive oil, sesame oil, peanut oil) 92 % of control; (dose: 200.0 mg/kg/injection, schedule: Q01DX009 (sc), vehicle: olive oil, sesame oil, peanut oil) 96 % of control; (dose: 200.0 mg/kg/injection, schedule: Q04DX003 (sc), vehicle: olive oil, sesame oil, peanut oil) 100 % of control; (dose: 400.0 mg/kg/injection, schedule: Q01DX009 (sc), vehicle: olive oil, sesame oil, peanut oil) 88 % of control; (dose: 400.0 mg/kg/injection, schedule: Q04DX003 (sc), vehicle: olive oil, sesame oil, peanut oil) 92 % of control.
Consider `C1OCN2CSCC12` (stereo unspecified), for which the T/C runs as follows: (dose: 100.0 mg/kg/injection, schedule: Q04DX002 (ip), vehicle: suspension in saline) 110 % of control; (dose: 600.0 mg/kg/injection, schedule: Q04DX002 (ip), vehicle: suspension in saline) 117 % of control.
Turning to `CO/C=C1\Cc2cc(OC)c(OC)cc2C1=O`, the T/C (dose: 100.0 mg/kg/injection, schedule: Q01DX009 (ip), vehicle: saline with Tween-80) is 90 % of control; the T/C (dose: 200.0 mg/kg/injection, schedule: Q01DX009 (ip), vehicle: saline with Tween-80) was 100 % of control; the T/C (dose: 400.0 mg/kg/injection, schedule: Q01DX009 (ip), vehicle: saline with Tween-80) was 109 % of control.
